Experimental data reported in patent publication US20260347348A1, “JAK1/JAK2/TYK2 Inhibitors For Topical Treatment of Dermatological Diseases” (Hangzhou Highlightll Pharmaceutical Co., Ltd, priority 2022, published 2026).
Where two headings read alike, the source gives them in different places.

How the values were obtained:
psoriasis = details: cited from earlier work
TYK2 [1] = molecular target: T1, TYK2 (Homo sapiens, UniProt P29597); experiment: TYK2 biochemical test (33P-ATP filter binding kinase assay); details: room temperature, 2 hours
Description: (§1) The tests were conducted by Reaction Biology Corp, Malvern, PA (Anastassiadis et al. Nat Biotechnol. 2011; 29(11):1039-45). The step is briefly described as follows.
(§2) Basic reaction buffer: 20 mM Hepes (pH 7.5), 10 mM MgCl2, 1 mM EGTA, 0.02% Brij35, 0.02 mg/ml BSA, 0.1 mM Na3VO4, 2 mM DTT and 1% DMSO. The required cofactor was added to each kinase reaction respectively.
(§3) • 1. Preparing the designated substrate in the newly prepared basic reaction buffer; • 2. Transferring the required cofactor to the above matrix solution; • 3. Transferring the designated kinase to the substrate solution and mixing well slightly; • 4. Transferring a compound of formulae I-III in DMSO to the kinase reaction mixture with Acoustic technique (Echo550; nanoliter range), culturing for 20 minutes at room temperature; • 5. Introducing ^33P-ATP (specific activity: 10 μCi/μl) to the reaction mixture to trigger a reaction; • 6. Culturing at room temperature and conducting a kinase reaction for 2 hours; • 7. Plotting the reaction on P81 ion exchange paper; • 8. Testing the kinase activity with a filter binding assay.

JAK1 [2] = molecular target: T2, JAK1 (Homo sapiens, UniProt P23458); experiment: JAK1 biochemical test (33P-ATP filter binding kinase assay); details: room temperature, 2 hours
Description: as §1, §2, §3

TYK2/JAK1/JAK2 = TYK2/JAK1/JAK2 biochemical tests, comparative summary
Description: as §1, §2, §3

TYK2 [3] = molecular target: T1, TYK2; experiment: TYK2 cellular ELISA assay using NK92 cells (IL-12 and IL-18 stimulated IFNγ excretion); format: cell-based; details: IL-12 2 ng/ml and IL-18 5 ng/ml, 24 hours
Description: Purpose: test cellular TYK2 activity using IL-12 and IL-18 stimulated IFNγ excretion assay in NK92 cells.
• 1. Replace NK92 cell media with IL-2 by media without IL-2, maintain overnight; • 2. Plate NK92 cells to 96-well plate at density of ~150,000 cell/well; • 3. Add different concentrations of test article to wells, maintain in incubator at 37° C. and 5% CO2 for 1 hour; • 4. Add IL-12 (final concentration: 2 ng/ml) and IL-18 (final concentration: 5 ng/ml) to stimulate for 24 hours in the above incubator; • 5. After 24 hours, centrifuge at 2000 rpm for 5 min, take the supernatant and analyze according to instructions of the ELISA kit.

JAK1 [4] = molecular target: T2, JAK1; experiment: JAK1 cellular ELISA assay using PBMC cells (IL-6 stimulated STAT3 phosphorylation); format: cell-based; details: IL-6 100 ng/ml, 25 min
Description: Purpose: test cellular JAK1 activity using the IL-6 stimulated STAT3 phosphorylation assay in PBMC cells.
• 1. Plate PBMC cells to 96-well plate at density of ~300,000 cell/well; • 2. Add different concentrations of test article to wells, maintain in incubator at 37° C. and 5% CO2 for 1 hour; • 3. Add IL-6 (final concentration: 100 ng/ml) to stimulate for 25 min in the above incubator; • 4. After stimulation, transfer the suspension to 1.5 mL tube, centrifuge at 200 g for 5 min, collect cells, add 100 μL 1× lysate, lyse on ice for 1 hour; • 5. Centrifuge at 4° C. and 12000 rpm for 10 min, take the supernatant and analyze according to instructions of the ELISA kit.

[5] = Human liver microsome stability assay; format: in vitro ADME; details: liver microsomes
Description: The assay was conducted following procedures as below: • 1. Prepared 8 sample plates of 96-well plates, named as T0, T3, T6, T9, T15, T30, NCF30, BLANK. • 2. Dispensed 100 μl/well human microsomes to each plate. • 3. Dispensed 2 μL compound or control working solution/well to each plate (T0, T3, T6, T9, T15, T30, NCF30) except matrix blank and incubation plates at 37° C. for about 10 min. The final concentration of test compound was 1 μM. For T0, added 600 (μL/well) of cold stop solution immediately. • 4. Added 98 μL 100 mM potassium phosphate buffer/well to NCF30 plate, incubated at 37° C., start reaction. • 5. After pre-warming, dispensed NADPH regenerating system to 96-well plate as reservoir according to the plate map. Then added 98 μL/well to every plate (Blank, T30, T15, T9, T6, T3, T0) to start reaction. • 6. The reaction was stopped by the addition of 600 μl of cold stop solution at 0, 3, 6, 9, 15 and 30 minutes. Samples were shaked for 10 min and then centrifuged at 3220 g for 20 min. The supernatant was taken from each well and diluted with dilution solution before being analyzed by LC/MS/MS. • 7. […]
The slope value, k, was determined by linear regression of the natural logarithm of the remaining percentage of the parent drug vs. incubation time curve. The in vitro t1/2 was determined from the slope value: […]

[6] = Mini-pig dermal pharmacokinetic study; format: in vivo, Guangxi Bama mini-pigs; details: for AUC(0-t): 15 mg/cm^2, topical ointment
Description: The aim of this study was to obtain the distribution of test articles in mini-pig after topical administration. Test articles were formulated as ointment and then applied to 2 female Guangxi Bama mini-pigs (8-12 kg) (Wujiang Tian yu Biological Technology). Briefly, total area estimated to be approximately 10% of the total body surface area were clipped free of hair before treatment using electric clippers. The test article was dosed evenly to the skin with 15 mg/cm^2 at 0 h, 8 h and 24 h. Test articles were removed before next dosing. Blood and skin samples were collected at 24 h (pre-dosing), 25 h, 28 h, 32 h, 48 h and 96 h. The blood was taken via peripheral vein of each animal into pre-chilled tube containing potassium (K2) EDTA as anticoagulant. Exposed skin was washed using ethanol and then wiped with dry cotton swab before skin sample collection. Eight samples of dosing skin were drilled with a biopsy punch (0.7 cm diameter) for each time point. Epidermis and dermis were separated and the eight samples from the same time point were pooled together and homogenized. All the above samples and homogenate were quantified by LC-MS/MS analysis.

[7] = topical formulation, 1.2-37.6 g per application, twice a day; cited from earlier work
JAK2 = JAK2 (Homo sapiens, UniProt O60674); experiment: JAK2 biochemical test (33P-ATP filter binding kinase assay); details: room temperature, 2 hours
Description: as §1, §2, §3

JAK3 = molecular target: T3, JAK3 (Homo sapiens, UniProt P52333); experiment: JAK3 biochemical test (33P-ATP filter binding kinase assay); details: room temperature, 2 hours
T3 sequence (P52333 1-1124): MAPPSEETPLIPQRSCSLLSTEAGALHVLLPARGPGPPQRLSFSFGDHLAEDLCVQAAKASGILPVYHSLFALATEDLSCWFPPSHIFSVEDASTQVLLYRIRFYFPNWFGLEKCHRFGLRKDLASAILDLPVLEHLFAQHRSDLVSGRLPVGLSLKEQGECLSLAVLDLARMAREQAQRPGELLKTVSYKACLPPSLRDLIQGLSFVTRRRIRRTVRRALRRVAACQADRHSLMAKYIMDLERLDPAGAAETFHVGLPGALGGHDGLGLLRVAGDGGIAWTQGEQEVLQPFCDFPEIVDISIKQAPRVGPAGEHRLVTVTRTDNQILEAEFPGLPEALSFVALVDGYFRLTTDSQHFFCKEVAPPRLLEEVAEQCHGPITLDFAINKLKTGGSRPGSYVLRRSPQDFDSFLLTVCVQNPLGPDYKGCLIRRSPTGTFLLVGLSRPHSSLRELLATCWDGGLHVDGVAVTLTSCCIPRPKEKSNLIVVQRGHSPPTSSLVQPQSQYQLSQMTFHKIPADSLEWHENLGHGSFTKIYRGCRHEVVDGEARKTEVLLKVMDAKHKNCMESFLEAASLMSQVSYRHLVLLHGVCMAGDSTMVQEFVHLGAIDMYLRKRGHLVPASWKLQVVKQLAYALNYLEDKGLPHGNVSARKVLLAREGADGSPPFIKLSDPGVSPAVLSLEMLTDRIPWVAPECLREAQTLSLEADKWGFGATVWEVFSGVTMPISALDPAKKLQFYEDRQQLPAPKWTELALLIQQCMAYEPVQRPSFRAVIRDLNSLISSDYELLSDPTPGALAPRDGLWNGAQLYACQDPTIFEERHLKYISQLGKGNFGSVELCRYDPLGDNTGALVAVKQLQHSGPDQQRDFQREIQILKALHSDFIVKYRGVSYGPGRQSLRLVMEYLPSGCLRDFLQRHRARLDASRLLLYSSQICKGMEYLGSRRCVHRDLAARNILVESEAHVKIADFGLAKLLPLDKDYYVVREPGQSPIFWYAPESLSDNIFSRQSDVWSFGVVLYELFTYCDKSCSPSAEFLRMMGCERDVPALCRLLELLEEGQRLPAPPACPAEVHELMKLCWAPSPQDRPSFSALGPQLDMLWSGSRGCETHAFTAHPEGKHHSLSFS
Description: as §1, §2, §3

T1 sequence (P29597 whole entry): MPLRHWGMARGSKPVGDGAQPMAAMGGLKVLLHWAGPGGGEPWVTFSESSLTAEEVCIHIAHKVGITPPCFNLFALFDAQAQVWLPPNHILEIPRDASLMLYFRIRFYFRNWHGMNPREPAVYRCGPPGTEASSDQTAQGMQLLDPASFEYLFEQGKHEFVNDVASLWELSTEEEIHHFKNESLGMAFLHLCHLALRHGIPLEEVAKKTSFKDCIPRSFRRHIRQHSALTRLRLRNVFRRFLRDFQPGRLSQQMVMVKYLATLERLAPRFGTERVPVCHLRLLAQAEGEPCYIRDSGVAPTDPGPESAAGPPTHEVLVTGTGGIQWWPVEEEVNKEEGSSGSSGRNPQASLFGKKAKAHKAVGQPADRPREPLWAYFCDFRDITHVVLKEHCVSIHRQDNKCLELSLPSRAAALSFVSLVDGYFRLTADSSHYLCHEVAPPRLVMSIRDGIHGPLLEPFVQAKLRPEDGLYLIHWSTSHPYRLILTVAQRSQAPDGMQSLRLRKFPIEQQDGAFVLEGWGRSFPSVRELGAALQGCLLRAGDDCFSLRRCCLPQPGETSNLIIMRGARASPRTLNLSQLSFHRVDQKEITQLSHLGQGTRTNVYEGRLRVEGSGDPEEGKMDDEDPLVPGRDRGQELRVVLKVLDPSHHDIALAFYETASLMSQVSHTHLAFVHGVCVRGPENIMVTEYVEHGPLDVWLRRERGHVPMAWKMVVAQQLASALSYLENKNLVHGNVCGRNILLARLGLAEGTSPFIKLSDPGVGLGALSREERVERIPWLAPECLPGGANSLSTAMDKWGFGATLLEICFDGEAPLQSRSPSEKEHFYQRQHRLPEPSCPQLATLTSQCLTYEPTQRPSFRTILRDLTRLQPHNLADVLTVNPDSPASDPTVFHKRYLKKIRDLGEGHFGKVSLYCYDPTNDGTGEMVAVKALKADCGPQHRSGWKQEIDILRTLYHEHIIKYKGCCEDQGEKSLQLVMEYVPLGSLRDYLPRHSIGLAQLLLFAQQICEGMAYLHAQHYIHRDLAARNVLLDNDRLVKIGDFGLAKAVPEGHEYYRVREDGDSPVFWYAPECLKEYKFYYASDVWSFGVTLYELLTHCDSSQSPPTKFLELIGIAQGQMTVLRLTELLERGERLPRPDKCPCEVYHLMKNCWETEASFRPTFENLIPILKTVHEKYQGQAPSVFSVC
T2 sequence (P23458 whole entry): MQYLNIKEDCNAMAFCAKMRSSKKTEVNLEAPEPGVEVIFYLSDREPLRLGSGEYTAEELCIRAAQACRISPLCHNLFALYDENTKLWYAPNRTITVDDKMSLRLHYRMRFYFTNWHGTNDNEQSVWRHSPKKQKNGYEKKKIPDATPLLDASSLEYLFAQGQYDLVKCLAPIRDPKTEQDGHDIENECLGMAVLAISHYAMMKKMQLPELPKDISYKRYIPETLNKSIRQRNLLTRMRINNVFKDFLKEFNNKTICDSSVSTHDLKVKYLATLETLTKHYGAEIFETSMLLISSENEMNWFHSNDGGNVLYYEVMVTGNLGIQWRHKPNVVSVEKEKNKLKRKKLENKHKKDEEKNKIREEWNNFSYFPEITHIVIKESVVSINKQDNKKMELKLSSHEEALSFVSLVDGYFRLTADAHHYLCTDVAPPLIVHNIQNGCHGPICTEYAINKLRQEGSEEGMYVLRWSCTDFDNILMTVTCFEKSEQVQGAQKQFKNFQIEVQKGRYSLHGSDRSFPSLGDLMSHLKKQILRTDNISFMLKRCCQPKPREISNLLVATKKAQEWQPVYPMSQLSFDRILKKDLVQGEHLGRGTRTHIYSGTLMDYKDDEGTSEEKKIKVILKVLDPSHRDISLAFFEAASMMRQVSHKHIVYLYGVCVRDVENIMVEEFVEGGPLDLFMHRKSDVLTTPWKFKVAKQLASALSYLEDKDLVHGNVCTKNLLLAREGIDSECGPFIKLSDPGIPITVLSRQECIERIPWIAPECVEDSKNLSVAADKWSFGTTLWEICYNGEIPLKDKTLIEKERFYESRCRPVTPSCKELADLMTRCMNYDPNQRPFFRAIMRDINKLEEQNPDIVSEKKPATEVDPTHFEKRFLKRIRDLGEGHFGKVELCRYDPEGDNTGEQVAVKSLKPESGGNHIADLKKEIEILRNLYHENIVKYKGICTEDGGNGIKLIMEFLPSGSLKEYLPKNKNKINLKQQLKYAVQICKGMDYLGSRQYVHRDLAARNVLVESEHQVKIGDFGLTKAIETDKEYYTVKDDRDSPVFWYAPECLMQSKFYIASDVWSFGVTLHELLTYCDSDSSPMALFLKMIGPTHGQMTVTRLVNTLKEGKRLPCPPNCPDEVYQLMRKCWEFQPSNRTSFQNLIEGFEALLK
JAK2, sequence (O60674 whole entry): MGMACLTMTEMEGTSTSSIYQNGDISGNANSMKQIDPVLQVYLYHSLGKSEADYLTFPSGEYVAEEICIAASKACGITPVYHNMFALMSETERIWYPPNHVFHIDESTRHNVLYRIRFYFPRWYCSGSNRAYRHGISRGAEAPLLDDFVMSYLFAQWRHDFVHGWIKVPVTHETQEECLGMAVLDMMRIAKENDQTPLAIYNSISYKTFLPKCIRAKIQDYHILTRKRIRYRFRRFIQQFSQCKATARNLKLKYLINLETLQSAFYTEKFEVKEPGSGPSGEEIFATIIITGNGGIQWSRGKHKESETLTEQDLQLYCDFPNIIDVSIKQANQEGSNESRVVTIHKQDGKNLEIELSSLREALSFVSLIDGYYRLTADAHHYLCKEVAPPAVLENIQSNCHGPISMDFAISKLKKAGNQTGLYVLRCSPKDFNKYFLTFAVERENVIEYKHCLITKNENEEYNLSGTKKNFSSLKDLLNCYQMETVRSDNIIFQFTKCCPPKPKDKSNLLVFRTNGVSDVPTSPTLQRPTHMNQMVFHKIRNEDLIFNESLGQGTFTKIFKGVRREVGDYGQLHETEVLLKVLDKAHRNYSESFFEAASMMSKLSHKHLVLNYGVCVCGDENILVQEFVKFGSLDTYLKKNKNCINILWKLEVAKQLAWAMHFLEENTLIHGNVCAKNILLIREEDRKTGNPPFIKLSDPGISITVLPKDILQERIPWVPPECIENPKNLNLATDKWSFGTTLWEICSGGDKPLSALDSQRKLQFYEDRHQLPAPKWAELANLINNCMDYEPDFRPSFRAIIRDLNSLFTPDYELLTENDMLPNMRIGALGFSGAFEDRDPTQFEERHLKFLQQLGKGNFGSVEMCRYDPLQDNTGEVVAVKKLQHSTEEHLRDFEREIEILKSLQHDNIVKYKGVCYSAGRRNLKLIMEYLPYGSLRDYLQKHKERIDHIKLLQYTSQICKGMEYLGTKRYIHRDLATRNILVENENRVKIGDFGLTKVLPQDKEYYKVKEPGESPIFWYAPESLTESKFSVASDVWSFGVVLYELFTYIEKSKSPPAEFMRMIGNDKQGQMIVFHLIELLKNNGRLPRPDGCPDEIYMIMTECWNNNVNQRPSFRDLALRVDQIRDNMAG

In the case of CNC(=O)c1nnc(NC(=O)C2CC2)cc1Nc1cccc(-c2ncn(C)n2)c1OC [deucravacitinib], the “Phase 2 and Phase 3 results in patients with psoriasis” value (psoriasis) is given as “positive Phase 2 and Phase 3 results”.
With Cc1cnc(Nc2cnn(C)c2)nc1-c1cnn([C@H](CC#N)C2CCCC2)c1 [Compound 4, (R)-3-cyclopentyl-3-(4-(5-methyl-2-((1-methyl-1H-pyrazol-4-yl)amino)pyrimidin-4-yl)-1H-pyrazol-1-yl) propanenitrile] the IC50 (TYK2 [1]) was under 1 nM, the IC50 (JAK1 [2]) was under 1 nM and the “TYK2/JAK1/JAK2 inhibition (in words)” value (TYK2/JAK1/JAK2) was “potent TYK2/JAK1/JAK2 inhibitors”. The IC50 (TYK2 [3]) was under 10 nM, the IC50 (JAK1 [4]) was under 500 nM and the half-life at 1 µM [5] was 21 min. The microsomal CLint at 1 µM ([5]; read-out: in vitro CLint(mic)) was 65.9 µL/min/mg, the AUC(0-t) ([6]; minipig, plasma, topical or ocular, 15 mg/cm^2 at 0 h, 8 h and 24 h, plasma, read-out: Plasma AUC0-last) was 0.103 µg·h/mL and the AUC(0-t) ([6]; minipig, topical or ocular, 15 mg/cm^2 at 0 h, 8 h and 24 h, dermis, read-out: Dermis AUC0-last) was 517 µg·h/mL. The AUC(0-t) ([6]; minipig, topical or ocular, 15 mg/cm^2 at 0 h, 8 h and 24 h, epidermis, read-out: Epidermis AUC0-last) was 3520 µg·h/mL, the Kp ([6]; minipig, topical or ocular, topical ointment, 15 mg/cm^2 at 0 h, 8 h and 24 h, read-out: Dermis/Plasma ratio (AUC)) was 5020 and the “systemic exposure and skin distribution (in words)” value ([6]; topical administration) was “minimal systemic exposure and enrichment in dermis and epidermis”.
In the case of N#CC[C@H](C1CCCC1)n1cc(-c2ncnc3[nH]ccc23)cn1 [ruxolitinib], the Cmax [7] is given as 449 ± 883 nM.
With CCS(=O)(=O)N1CC(CC#N)(n2cc(-c3nc(Nc4cnn(C)c4)ncc3C)cn2)C1 [Compound 18, 2-(1-(ethylsulfonyl)-3-(4-(5-methyl-2-((1-methyl-1H-pyrazol-4-yl)amino)pyrimidin-4-yl)-1H-pyrazol-1-yl)azetidin-3-yl)acetonitrile] the IC50 (TYK2 [1]) was under 1 nM, the IC50 (JAK1 [2]) was under 1 nM and the IC50 (JAK2) was under 1 nM. The IC50 (JAK3) was over 10 nM, the “TYK2/JAK1/JAK2 inhibition (in words)” value (TYK2/JAK1/JAK2) was “potent TYK2/JAK1/JAK2 inhibitors” and the IC50 (JAK1 [4]) was under 500 nM.
